According to patent publication US9598424B2 (Takeda Pharmaceutical Company Limited, priority 2014, dated 2017):

Key:
Full length human TBK1 = target: T1, Full length human TBK1 (Homo sapiens, UniProt Q9UHD2); test: Inhibition of TBK1 Enzyme (Caliper microfluidic assay); assay type: biochemical; settings: 25 μM ATP, 60 min at RT; -log(IC50), IC50 molar; read-out: TBK1 Inhibition (pIC50) (converted)
T1 construct: Full length human TBK1 with an N-terminal His-tag; His-tag (N); made in house; host or cells: Sf9 insect cells (baculovirus, pFastBac1)
T1 sequence (Q9UHD2 1-729): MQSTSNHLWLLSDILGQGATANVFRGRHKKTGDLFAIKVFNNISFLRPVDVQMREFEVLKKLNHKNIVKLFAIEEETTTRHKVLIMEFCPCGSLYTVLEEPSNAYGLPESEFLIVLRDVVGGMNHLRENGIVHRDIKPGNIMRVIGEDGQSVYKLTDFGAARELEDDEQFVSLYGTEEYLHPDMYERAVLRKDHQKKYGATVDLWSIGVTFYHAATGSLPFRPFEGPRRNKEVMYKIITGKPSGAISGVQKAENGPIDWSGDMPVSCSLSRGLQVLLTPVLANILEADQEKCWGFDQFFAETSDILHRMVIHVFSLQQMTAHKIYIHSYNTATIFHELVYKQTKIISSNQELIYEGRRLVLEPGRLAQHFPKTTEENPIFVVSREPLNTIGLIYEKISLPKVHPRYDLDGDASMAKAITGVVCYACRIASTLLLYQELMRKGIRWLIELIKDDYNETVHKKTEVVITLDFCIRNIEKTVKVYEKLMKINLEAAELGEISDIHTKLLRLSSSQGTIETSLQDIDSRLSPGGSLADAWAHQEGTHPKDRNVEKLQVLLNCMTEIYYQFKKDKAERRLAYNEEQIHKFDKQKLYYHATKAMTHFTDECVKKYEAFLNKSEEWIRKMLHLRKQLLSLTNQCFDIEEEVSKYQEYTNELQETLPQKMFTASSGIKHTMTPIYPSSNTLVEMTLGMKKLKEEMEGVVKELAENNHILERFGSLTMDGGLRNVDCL
Method in brief: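 Enzyme: His-tagged full-length TBK1 expressed in Sf9. Reaction 60 min at RT in 20 mM Hepes pH 7.4, 10 mM MgCl2, 1 mM EDTA, 0.01% Brij-L23, 1 mM DTT, with 5FAM-peptide (added at 1 μM) and TBK1/ATP mix (added at 3 nM/25 μM), then EDTA-quenched. Conversion measured by microfluidic separation; 11-point 2.5-fold series fit to pIC50.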

TBK1 = target: T2, TBK1 (Homo sapiens, UniProt Q9UHD2); test: Inhibition of TBK1 in Cells (TLR3 driven ISRE β-lactamase reporter assay); assay type: cell-based; settings: poly IC-LMW stimulation 16 hrs; -log(EC50), EC50 molar; read-out: Inhibition of TBK1 in cells pEC50 (EC) (converted)
T2 construct: host or cells: RA1-ISRE beta-lactamase reporter cells
T2 sequence (Q9UHD2 1-729): T1 sequence (Q9UHD2 1-729)
Description: TBK1 inhibition is determined using a TLR3 driven RA1-ISRE β-lacatamase reporter assay (Life Technologies). In the assay 50,000 cells/well are plated in black clear bottom 384 well plate. Each test compound is prepared in DMSO using 2.5-fold serial dilutions for 11 data points, which are then added to the media. Cells are stimulated with 0.15 mg/ml poly IC-LMW (Invivogen) for 16 hrs. Reporter activity is detected using the LiveBLAzer-FRET B/G CCF4-AM substrate (Life Technologies) and the plate is read using the Spectramax M5 instrument. Corresponding EC50 values are calculated by non-linear curve fitting of the compound concentrations and percent of inhibition to the standard EC50 equation and reported as pEC50, i.e., −log(EC50), where EC50 is the molar concentration.

| SMILES | IC50 (Full length human TBK1) | EC50 (TBK1) |
| --- | --- | --- |
| O=C(NC1CCOCC1)c1cc(-c2ccc3nc(NC(=O)C4CC4)cn3c2)cs1 [Example 66, 4-(2-(cyclopropanecarboxamido)imidazo[1,2-a]pyridin-6-yl)-N-(tetrahydro-2H-pyran-4-yl)thiophene-2-carboxamide] | 100 nM | 2040 nM |
| O=C(NC1CCCOC1)c1cc(-c2ccc3nc(NC(=O)C4CC4)cn3c2)cs1 (stereo not shown) [Example 67, 4-(2-(cyclopropanecarboxamido)imidazo[1,2-a]pyridin-6-yl)-N-(tetrahydro-2H-pyran-3-yl)thiophene-2-carboxamide] | 63.1 nM | 1170 nM |
| O=C(N[C@H]1CCCOC1)c1cc(-c2ccc3nc(NC(=O)C4CC4)cn3c2)cs1 [Example 68, (S)-4-(2-(cyclopropanecarboxamido)imidazo[1,2-a]pyridin-6-yl)-N-(tetrahydro-2H-pyran-3-yl)thiophene-2-carboxamide] | 10 nM | 1020 nM |
| O=C(N[C@@H]1CCCOC1)c1cc(-c2ccc3nc(NC(=O)C4CC4)cn3c2)cs1 [Example 69, (R)-4-(2-(cyclopropanecarboxamido)imidazo[1,2-a]pyridin-6-yl)-N-(tetrahydro-2H-pyran-3-yl)thiophene-2-carboxamide] | 100 nM | 2880 nM |
| O=C(NC1CCOC1)c1cc(-c2ccc3nc(NC(=O)C4CC4)cn3c2)cs1 (stereo not shown) [Example 70, 4-(2-(cyclopropanecarboxamido)imidazo[1,2-a]pyridin-6-yl)-N-(tetrahydrofuran-3-yl)thiophene-2-carboxamide] | 31.6 nM | 891 nM |
| O=C(N[C@@H]1CCOC1)c1cc(-c2ccc3nc(NC(=O)C4CC4)cn3c2)cs1 [Example 71, (R)-4-(2-(cyclopropanecarboxamido)imidazo[1,2-a]pyridin-6-yl)-N-(tetrahydrofuran-3-yl)thiophene-2-carboxamide] | 20 nM | 2400 nM |
| O=C(N[C@H]1CCOC1)c1cc(-c2ccc3nc(NC(=O)C4CC4)cn3c2)cs1 [Example 72, (S)-4-(2-(cyclopropanecarboxamido)imidazo[1,2-a]pyridin-6-yl)-N-(tetrahydrofuran-3-yl)thiophene-2-carboxamide] | 12.6 nM | 1200 nM |
| COCCNC(=O)c1cc(-c2ccc3nc(NC(=O)C4CC4)cn3c2)cs1 [Example 73, 4-(2-(cyclopropanecarboxamido)imidazo[1,2-a]pyridin-6-yl)-N-(2-methoxyethyl)thiophene-2-carboxamide] | 63.1 nM | 1660 nM |
| O=C(Nc1cn2cc(-c3csc(C(=O)N4CCC(F)(F)C4)c3)ccc2n1)C1CC1 [Example 74, N-(6-(5-(3,3-difluoropyrrolidine-1-carbonyl)thiophen-3-yl)imidazo[1,2-a]pyridin-2-yl)cyclopropanecarboxamide] | 31.6 nM | 1350 nM |
| O=C(NCC1CCOC1)c1cc(-c2ccc3nc(NC(=O)C4CC4)cn3c2)cs1 (stereo not shown) [Example 75, 4-(2-(cyclopropanecarboxamido)imidazo[1,2-a]pyridin-6-yl)-N-((tetrahydrofuran-3-yl)methyl)thiophene-2-carboxamide] | 50.1 nM | 1700 nM |
| O=C(N[C@H]1CCCC[C@H]1O)c1cc(-c2ccc3nc(NC(=O)C4CC4)cn3c2)cs1 [Example 76, 4-(2-(cyclopropanecarboxamido)imidazo[1,2-a]pyridin-6-yl)-N-((1S,2R)-2-hydroxycyclohexyl)thiophene-2-carboxamide] | 15.8 nM | 912 nM |
| O=C(Nc1cn2cc(-c3csc(C(=O)N4CC(F)(F)C4)c3)ccc2n1)C1CC1 [Example 77, N-(6-(5-(3,3-difluoroazetidine-1-carbonyl)thiophen-3-yl)imidazo[1,2-a]pyridin-2-yl)cyclopropanecarboxamide] | 63.1 nM | 1660 nM |
| O=C(NCCC(F)(F)F)c1cc(-c2ccc3nc(NC(=O)C4CC4)cn3c2)cs1 [Example 78, 4-(2-(cyclopropanecarboxamido)imidazo[1,2-a]pyridin-6-yl)-N-(3,3,3-trifluoropropyl)thiophene-2-carboxamide] | 10 nM | 479 nM |
| CC(=O)N1CCC(NC(=O)c2cc(-c3ccc4nc(NC(=O)C5CC5)cn4c3)cs2)C1 (stereo not shown) [Example 79, N-(1-acetylpyrrolidin-3-yl)-4-(2-(cyclopropanecarboxamido)imidazo[1,2-a]pyridin-6-yl)thiophene-2-carboxamide] | 79.4 nM | 22900 nM |
| C[C@H](NC(=O)c1cc(-c2ccc3nc(NC(=O)C4CC4)cn3c2)cs1)C(F)(F)F [Example 80, (S)-4-(2-(cyclopropanecarboxamido)imidazo[1,2-a]pyridin-6-yl)-N-(1,1,1-trifluoropropan-2-yl)thiophene-2-carboxamide] | 63.1 nM | 1380 nM |
| C[C@@H](NC(=O)c1cc(-c2ccc3nc(NC(=O)C4CC4)cn3c2)cs1)C(F)(F)F [Example 81, (R)-4-(2-(cyclopropanecarboxamido)imidazo[1,2-a]pyridin-6-yl)-N-(1,1,1-trifluoropropan-2-yl)thiophene-2-carboxamide] | 2.51 nM | 44.7 nM |
| COCCN(CC(F)(F)F)C(=O)c1cc(-c2ccc3nc(NC(=O)C4CC4)cn3c2)cs1 [Example 83, 4-(2-(cyclopropanecarboxamido)imidazo[1,2-a]pyridin-6-yl)-N-(2-methoxyethyl)-N-(2,2,2-trifluoroethyl)thiophene-2-carboxamide] | 20 nM | 646 nM |
| O=C(NC1COCC1O)c1cc(-c2ccc3nc(NC(=O)C4CC4)cn3c2)cs1 (stereo not shown) [Example 84, 4-(2-(cyclopropanecarboxamido)imidazo[1,2-a]pyridin-6-yl)-N-(4-hydroxytetrahydrofuran-3-yl)thiophene-2-carboxamide] | 31.6 nM | 2820 nM |
| O=C(NC1CCCC1=O)c1cc(-c2ccc3nc(NC(=O)C4CC4)cn3c2)cs1 (stereo not shown) [Example 85, 4-(2-(cyclopropanecarboxamido)imidazo[1,2-a]pyridin-6-yl)-N-(2-oxocyclopentyl)thiophene-2-carboxamide] | 100 nM | 4070 nM |
| O=C(N[C@H]1CCOC1)c1nc(-c2ccc3nc(NC(=O)C4CC4)cn3c2)cs1 [Example 87, (S)-4-(2-(cyclopropanecarboxamido)imidazo[1,2-a]pyridin-6-yl)-N-(tetrahydrofuran-3-yl)thiazole-2-carboxamide] | 63.1 nM | 2880 nM |
| O=C(N[C@H]1CCC[C@H]1O)c1nc(-c2ccc3nc(NC(=O)C4CC4)cn3c2)cs1 [Example 89, 4-(2-(cyclopropanecarboxamido)imidazo[1,2-a]pyridin-6-yl)-N-((1S, 2R)-2-hydroxycyclopentyl)thiazole-2-carboxamide] | 31.6 nM | 1020 nM |
| O=C(NC1CCCC1(F)F)c1nc(-c2ccc3nc(NC(=O)C4CC4)cn3c2)cs1 (stereo not shown) [Example 90, 4-(2-(cyclopropanecarboxamido)imidazo[1,2-a]pyridin-6-yl)-N-(2,2-difluorocyclopentyl)thiazole-2-carboxamide] | 39.8 nM | 1020 nM |
| O=C(NC1CCCC1=O)c1nc(-c2ccc3nc(NC(=O)C4CC4)cn3c2)cs1 (stereo not shown) [Example 91, 4-(2-(cyclopropanecarboxamido)imidazo[1,2-a]pyridin-6-yl)-N-(2-oxocyclopentyl)thiazole-2-carboxamide] | 200 nM | 5130 nM |
